We go through 3 molecules from patent publication US10363262B1, “Composition for treating wound comprising gypenoside LXXV” (Intelligent Synthetic Biology Center, priority 2018, dated 2019).

One series has as its system Igf1. Kind of series: RNA sequencing, growth factor mRNA level in wound tissue. The series is classed as in vivo, mouse. The following applies: third day after treatment, versus vehicle control. The procedure: (§1) To examine the process of G75 involvement in wound recovery, RNA sequencing was performed. After creating an excision wound on the dorsal area of each mouse, the wound was treated with G75 or the vehicle control, and RNA was isolated from the dorsal excisional wound tissue on the third day after the treatment and analyzed. When the p value was 0.05 or below and there was a change of 1.7-fold or greater, the change was considered to significant.
(§2) To confirm the effect of G75 on the growth factors involved in wound healing, the mRNA levels of growth factors were measured based on the results of RNA sequencing analysis.

A further series concerns Hbegf. The description is as above. The series is classed as in vivo, mouse. The following applies: third day after treatment, versus vehicle control. The procedure: as §1, §2
A further series relates to Vegf alpha. Described as above. It counts as in vivo, mouse. The following applies: third day after treatment, versus vehicle control. The procedure: as §1, §2
The test system of series [1] is CTGF. The series is described as above. The series is classed as in vivo, mouse. The following applies: third day after treatment, versus vehicle control. The procedure:
as §1, §2

Another series concerns Fgf7. Described as above. The series is classed as in vivo, mouse. The following applies: third day after treatment, versus vehicle control. The procedure: as §1, §2
A further series concerns Angpt1. The series is described as above. It counts as in vivo, mouse. The following applies: third day after treatment, versus vehicle control. As to the method: as §1, §2
The next series has as its system Tgf alpha. The series is described as above. The following applies: third day after treatment, versus vehicle control. The series is classed as in vivo, mouse. The procedure: as §1, §2
For another series, the system named is Csf2. Described as above. It counts as in vivo, mouse. The following applies: third day after treatment, versus vehicle control. The procedure: as §1, §2
For the next series, the system named is Fgf2. The description is as above. It counts as in vivo, mouse. The following applies: third day after treatment, versus vehicle control. As to the method:
as §1, §2

Another series deals with Hgf. Described as above. The series is classed as in vivo, mouse. The following applies: third day after treatment, versus vehicle control. As to the method: as §1, §2
The subject of the next series is Fgf10. Described as above. The series is classed as in vivo, mouse. The following applies: third day after treatment, versus vehicle control. As to the method: as §1, §2
Another series relates to Tgf beta1. Described as above. It counts as in vivo, mouse. The following applies: third day after treatment, versus vehicle control. The procedure:
as §1, §2

Series [2] relates to HaCaT keratinocytes. In words: scratch wound closure assay (migration of HaCaT keratinocytes). The series is classed as cell-based. As to the method:
Specifically, HaCaT keratinocytes were cultured in a 6-well plate and the plate was scratched using a 200 μL micropipette tip. The remainder was washed with PBS and the cells were cultured for 24 hours, treated with 10 μM ginsenoside or DMSO, and the gap regions were measured (FIG. 1B).
(§3) Each cell was seeded into a 96-well plate and cultured at 37° C. for 48 hours. The cultured cells were treated with G75, MA, or DMSO at a concentration of 5 μM or 10 μM. After 48 hours, the proliferation of these cells was confirmed using the non-radioactive cell proliferation assay kit (Promega, WI, USA), and migration of these cells was confirmed in the same manner as in Example 1-2 (FIG. 2).

For series [3] the following is noted: compared with ginsenosides having a large size (about 1,000 Da); cited from earlier work.
Series [4] has as its system HaCaT keratinocytes. In words: non-radioactive cell proliferation assay, HaCaT keratinocytes. The series is classed as cell-based. As to the method:
as §3

Series [5] relates to dorsal excisional wound tissue. Kind of series: RNA sequencing of dorsal excisional wound tissue. The series is classed as in vivo, mouse. The following applies: third day after treatment; p 0.05 or below and change of 1.7-fold or greater. The procedure:
as §1

In a further series the test system is CTGF protein. In words: western blot of CTGF protein in wound skin tissue. It counts as in vivo, mouse. The following applies: after 3 days. The procedure: To examine whether the G75 treatment increases the expression level of CTGF protein, each wound was treated with G75, and after 3 days, the skin tissue was collected and subjected to western blot.
The subject of series [6] is CTGF. Kind of series: ELISA assay of CTGF production by human dermal fibroblasts. The series is classed as cell-based. The following applies: supernatant of human dermal fibroblasts.
Series [7] deals with HaCaT keratinocytes. Kind of series: MTT analysis of proliferation of HaCaT keratinocytes. It counts as cell-based. The following applies: 48 hours. The procedure:
HaCaT keratinocytes were treated with major ginsenosides (e.g., Rb1, Rd, Re, and Rg1) and other ginsenosides (e.g., C-K, F1, F2, G17, G75, PPD, PPT, Rg2, Rg3, Rh1, and Rh2) at a concentration of 0.01 μM to 20 μM for 48 hours and then subjected to MTT analysis (FIG. 1A). As the control group, DMSO was used.

The subject of series [8] is excision wound mouse model. In words: in vivo wound closure activity in excision wound mouse model. The following applies: ICR mice, once a day for 9 days, topical. The procedure:
The in vivo wound closure activity was measured in an excision wound mouse model.
Eight-week-old male ICR mice were purchased from Narabiotech (Korea), acclimatized for one week, and used in the experiment. Two full-thickness circular wounds (diameter: 5 mm) were created on the dorsal region of each mouse, and the progressive changes in wound closure were measured relative to the original wound area. G75 (5 μM/wound) or MA (10 μM/wound) was then applied on each wound area once a day for 9 days. DMSO-propylene glycol was used as a vehicle control.

Series [9] relates to human dermal fibroblasts. In words: non-radioactive cell proliferation assay, human dermal fibroblasts. The following applies: 10 μM, 48 hours. It counts as cell-based. The procedure:
as §3

The test system of series [10] is human dermal fibroblasts. Kind of series: proliferation of human dermal fibroblasts treated with CTGF. The series is classed as cell-based.

As for `CC(C)=CCC[C@](C)(O[C@@H]1O[C@H](CO[C@@H]2O[C@H](CO)[C@@H](O)[C@H](O)[C@H]2O)[C@@H](O)[C@H](O)[C@H]1O)[C@H]1CC[C@]2(C)[C@@H]1[C@H](O)C[C@@H]1[C@@]3(C)CC[C@H](O)C(C)(C)[C@@H]3CC[C@]12C` [G75, gypenoside LXXV], the “Fold change Igf1 mRNA” value in the series with Igf1 turned out to be 1.367. For the same molecule, the “Fold change Hbegf mRNA” value in the series on Hbegf came to 1.267. Moreover, in the series on Vegf alpha, the “Fold change Vegf alpha mRNA” value came to 1.281. For the same molecule, the “Fold change CTGF mRNA” value in the series with CTGF [1] worked out at 1.879. Further, the “Fold change Fgf7 mRNA” value in the series with Fgf7 is 1.789. Moreover, the “Fold change Angpt1 mRNA” value in the series on Angpt1 came to 1.796. The “Fold change Tgf alpha mRNA” value in the series with Tgf alpha was determined as 1.504. Also, the “Fold change Csf2 mRNA” value in the series on Csf2 amounted to 5.545. For the same molecule, the “Fold change Fgf2 mRNA” value in the series on Fgf2 was found to be 8.143. For the same molecule, the “Fold change Hgf mRNA” value with Hgf was determined as 1.191. Besides, in the series with Fgf10, the “Fold change Fgf10 mRNA” value stood at 1.750. Moreover, the “Fold change Tgf beta1 mRNA” value with Tgf beta1 was found to be 1.392. Besides, the cell migration entry is listed as “significant effect” in the series with HaCaT keratinocytes [2] (Example 2-1, 5 μM) and “significant effect” in the series with HaCaT keratinocytes [2] (Example 2-1, 10 μM). Further, in the series with HaCaT keratinocytes [2] (HaCaT keratinocytes, 10 μM, compared to DMSO control), the “migration effect (gap regions)” value was “highest migration effect”. Besides, the “in vivo absorption rate” value in [3] was “greater in vivo absorption rate”. Further, in the series on HaCaT keratinocytes [4] (cell proliferation and cell migration, HaCaT keratinocytes and human dermal fibroblasts), the “effects compared with MA at the same concentration” value is “superior effects to MA”. Also, in series [5], the “number of genes whose expression level was changed” value is on record as 1048. Further, in the series with CTGF protein, the “expression level of CTGF protein” value is given as “significantly increased”. In the series on CTGF [6], the “amount of CTGF production” value is “increased the amount of CTGF production”. Further, in the series on HaCaT keratinocytes [7] (0.01 μM to 20 μM, DMSO control), the “cell proliferation effect relative to the control group” value was “about 136.8%”. Also, the cell proliferation effect entry in the series with HaCaT keratinocytes [7] (0.01 μM to 20 μM, compared to other ginsenosides / control) was “highest cell proliferation effect”. In addition, the “concentration at which the highest cell proliferation effect was shown” value with HaCaT keratinocytes [7] is 10 µM. In series [8] (5 μM/wound), the “wound area compared to vehicle control” value is listed as “wound areas became smaller”.

As for madecassoside [reference compound], the cell proliferation result in the series on HaCaT keratinocytes [4] (HaCaT keratinocytes, 10 μM, 48 hours) was “slight effect”; in the series on human dermal fibroblasts [9], “slight effect”. Besides, the “wound area compared to vehicle control” value in series [8] (10 μM/wound) is listed as “wound areas became smaller”.

B1: CTGF: connective tissue growth factor, applied to human dermal fibroblasts (protein, UniProt P29279 27-349, looked up)
CCN family member 2: QNCSGPCRCPDEPAPRCPAGVSLVLDGCGCCRVCAKQLGELCTERDPCDPHKGLFCHFGSPANRKIGVCTAKDGAPCIFGGTVYRSGESFQSSCKYQCTCLDGAVGCMPLCSMDVRLPSPDCPFPRRVKLPGKCCEEWVCDEPKDQTVVGPALAAYRLEDTFGPDPTMIRANCLVQTTEWSACSKTCGMGISTRVTNDNASCRLEKQSRLCMVRPCEADLEENIKKGKKCIRTPKISKPIKFELSGCTSMKTYRAKFCGVCTDGRCCTPHRTTTLPVEFKCPDGEVMKKNMMFIKTCACHYNCPGDNDIFESLYYRKMYGDMA
Regarding B1, the “proliferation compared to the vehicle control” value with human dermal fibroblasts [10] was “higher level of proliferation”.
